The subject of data set [1] is HaCaT. The data set can be described thus: Antiinflammatory activity against IFN-gamma-stimulated human HaCaT cells assessed as inhibition of chemokine MDC production at 50 to 100 uM after 18 hrs by ELISA. Format: functional, cell-based. (In general: ELISA stands for enzyme-linked immunosorbent assay.)
Data set [2] deals with HaCaT. The data set can be described thus: Cytotoxicity against human HaCaT cells at 50 to 100 uM after 24 hrs by MTT assay. Format: cell-based. On the technique in general: Formazan colour is commonly taken as a measure of viable cells.
The subject of data set [3] is RAW264.7. The data set can be described thus: Antiinflammatory activity against LPS-stimulated mouse RAW264.7 cells assessed as inhibition of IL-6 production at 1 to 15 uM after 18 hrs by ELISA. Format: functional, cell-based.
Data set [4] has as its system RAW264.7. The data set can be described thus: Antiinflammatory activity against LPS-stimulated mouse RAW264.7 cells assessed as inhibition of TNFalpha production at 1 to 15 uM after 18 hrs by ELISA. Format: functional, cell-based.
The test system of data set [5] is RAW264.7. The data set can be described thus: Cytotoxicity against mouse RAW264.7 cells at 50 uM after 24 hrs by MTT assay. Format: cell-based. Conditions: raw264.7, 24 h.
The nature of data set [6]: Cytotoxicity against mouse RAW264.7 cells after 24 hrs by MTT assay. Format: cell-based. Conditions: read-out: TC50.
The subject of data set [7] is RAW264.7. The data set can be described thus: Antiinflammatory activity against LPS-stimulated mouse RAW264.7 cells assessed as inhibition of IL1-beta production at 1 to 15 uM after 18 hrs by ELISA. Format: functional, cell-based.
For data set [8], the system named is RAW264.7. The data set can be described thus: Cytotoxicity against mouse RAW264.7 cells at 100 uM after 24 hrs by MTT assay. Format: cell-based. As to conditions: raw264.7, 24 h.
Data set [9] relates to RAW264.7. The data set can be described thus: Antiinflammatory activity against LPS-stimulated mouse RAW264.7 cells assessed as inhibition of NO production at 3.125 to 25 uM after 24 hrs by Griess method. Format: functional, cell-based. Background: Nitrite, measured by Griess reagent, commonly stands in for NO production.

Consider `CCCCCCCCC(=O)/C=C/CCCCCCC(=O)NCCc1ccc(O)c(O)c1`, for which the Activity entry in the data set on HaCaT [1] was “Non-toxic”; with HaCaT [2] it was “Toxic”; with RAW264.7 [3], “Dose-dependent effect”; with RAW264.7 [4], “Dose-dependent effect”; in the data set on RAW264.7 [5], “Toxic”; in the data set with RAW264.7 [7] it was “Dose-dependent effect”. In addition, the Activity entry was “Toxic” in the data set on RAW264.7 [8] and “Dose-dependent effect” in the data set with RAW264.7 [9]. Further, in data set [6], the CC50 at 24 h was 13 µM. Also, the IC50 in the data set with RAW264.7 [9] (Mus musculus, RAW264.7, 24 h) stood at 2 µM.

As for `CCCCCCCCCCCCCCCC(=O)NCCc1ccc(O)c(O)c1` [PALMITOYL DOPAMINE], the Activity result in the data set with HaCaT [1] was “Non-toxic”; in the data set with HaCaT [2], “Toxic”; in the data set on RAW264.7 [3] it was “Dose-dependent effect”; with RAW264.7 [4], “Dose-dependent effect”; in the data set with RAW264.7 [5] it was “Toxic”; in the data set with RAW264.7 [7], “Dose-dependent effect”. Further, the results for the Activity entry in the data set on RAW264.7 [8], with RAW264.7 [9] and in the data set with RAW264.7 [9] (record 2) were “Toxic”, “Dose-dependent effect” and 2 µM, respectively. Also, in data set [6], the CC50 at 24 h was 13 µM.

Consider `CCCCCCCCC(=O)/C=C/CCCCCCC(=O)NCC(O)CO` (racemic), for which the Activity entry with HaCaT [1] is “Non-toxic”; in the data set with HaCaT [2] it was “Toxic”; with RAW264.7 [5], “Toxic”; with RAW264.7 [8], “Toxic”; in the data set on RAW264.7 [9], “Dose-dependent effect”.

Consider `CC/C=C\C/C=C\C/C=C\CCCCCCCC(=O)NCc1ccc(O)c(OC)c1`, for which the Activity entry in the data set with HaCaT [1] is “Non-toxic”; in the data set on HaCaT [2] it was “Toxic”; in the data set with RAW264.7 [3] it was “Dose-dependent effect”; in the data set on RAW264.7 [4], “Dose-dependent effect”; with RAW264.7 [7] it was “Dose-dependent effect”.

Regarding `CCCCCCCCC(=O)/C=C/CCCCCCC(=O)NCCc1c[nH]c2ccc(O)cc12`, the Activity entry in the data set on HaCaT [1] is “Non-toxic”; in the data set with HaCaT [2] it was “Toxic”; in the data set with RAW264.7 [5], “Toxic”; with RAW264.7 [8], “Toxic”; in the data set with RAW264.7 [9], “Dose-dependent effect”.

Take `CCCCCCCCC(=O)/C=C/CCCCCCC(=O)NCCCl`: the Activity result with HaCaT [1] is “Non-toxic”; in the data set with HaCaT [2], “Toxic”; with RAW264.7 [5], “Toxic”; with RAW264.7 [8], “Toxic”; in the data set with RAW264.7 [9], “Dose-dependent effect”.

Consider `CCCCCCCCCCCCCCCC(=O)NCc1ccc(O)c(OC)c1`, for which the Activity entry in the data set on HaCaT [1] was “Non-toxic”; in the data set on HaCaT [2] it was “Toxic”; with RAW264.7 [3] it was “Dose-dependent effect”; in the data set on RAW264.7 [4], “Dose-dependent effect”; in the data set with RAW264.7 [7] it was “Dose-dependent effect”.

`CCCCCCCCC(=O)/C=C/CCCCCCC(=O)NCCO`: the Activity entry in the data set with HaCaT [1] was “Non-toxic”; in the data set with HaCaT [2], “Toxic”; in the data set with RAW264.7 [5], “Toxic”; in the data set on RAW264.7 [8] it was “Toxic”; in the data set with RAW264.7 [9], “Dose-dependent effect”.

For the compound `CCCCC/C=C\C/C=C\CCCCCCCC(=O)NCc1ccc(O)c(OC)c1`, the Activity entry is “Non-toxic” in the data set with HaCaT [1]; “Toxic” with HaCaT [2]; “Dose-dependent effect” with RAW264.7 [3]; “Dose-dependent effect” with RAW264.7 [4]; “Dose-dependent effect” with RAW264.7 [7].

With `CCCCCCC/C=C/C(=O)CCCCCCCC(=O)NCC(=O)O`, the Activity entry with HaCaT [1] was “Non-toxic”; in the data set on HaCaT [2] it was “Toxic”; in the data set on RAW264.7 [5], “Toxic”; in the data set on RAW264.7 [8] it was “Toxic”; in the data set with RAW264.7 [9], “Dose-dependent effect”.

As to `CCCCCCCC/C=C\CCCCCCCC(=O)NCc1ccc(O)c(OC)c1` [OLVANIL], the Activity entry with HaCaT [1] is “Non-toxic”; in the data set with HaCaT [2] it was “Toxic”; in the data set on RAW264.7 [3], “Dose-dependent effect”; in the data set on RAW264.7 [4], “Dose-dependent effect”; in the data set on RAW264.7 [7] it was “Dose-dependent effect”.

For the compound `CCCCCCCC/C=C/C(=O)CCCCCCC(=O)NCC(=O)O`, the Activity result was “Non-toxic” in the data set with HaCaT [1]; “Toxic” in the data set on HaCaT [2]; “Toxic” in the data set with RAW264.7 [5]; “Toxic” with RAW264.7 [8]; “Dose-dependent effect” with RAW264.7 [9].

As for `CCCCCCCC/C=C\CCCCCCCCCCCC(=O)NCc1ccc(O)c(OC)c1`, the Activity result in the data set on HaCaT [1] was “Non-toxic”; in the data set with HaCaT [2], “Toxic”; in the data set on RAW264.7 [3] it was “Dose-dependent effect”; in the data set with RAW264.7 [4], “Dose-dependent effect”; with RAW264.7 [7], “Dose-dependent effect”.

Consider `CCCCCCCC/C=C\CCCCCCCC(=O)NCCc1ccc(O)c(O)c1` [OLEOYL DOPAMINE], for which the Activity entry was “Non-toxic” with HaCaT [1]; “Toxic” in the data set with HaCaT [2]; “Dose-dependent effect” in the data set on RAW264.7 [3]; “Dose-dependent effect” in the data set with RAW264.7 [4]; “Toxic” in the data set with RAW264.7 [5]; “Dose-dependent effect” in the data set with RAW264.7 [7]. Moreover, the Activity entry with RAW264.7 [8] is “Toxic”; in the data set on RAW264.7 [9], “Dose-dependent effect”; in the data set with RAW264.7 [9] (record 2), 2 µM. Further, in data set [6], the CC50 at 24 h stood at 13 µM.

Regarding `CCCCC/C=C\C/C=C\CCCCCCCC(=O)NCCc1ccc(O)c(O)c1`, the Activity result in the data set with HaCaT [1] is “Non-toxic”; in the data set on HaCaT [2], “Toxic”; in the data set on RAW264.7 [3], “Dose-dependent effect”; in the data set with RAW264.7 [4], “Dose-dependent effect”; in the data set with RAW264.7 [5], “Toxic”; in the data set with RAW264.7 [7], “Dose-dependent effect”. Moreover, the Activity result in the data set on RAW264.7 [8] was “Toxic”; in the data set on RAW264.7 [9], “Dose-dependent effect”; with RAW264.7 [9] (record 2), 2 µM. Moreover, the CC50 at 24 h in data set [6] was 13 µM.

Take `CCCCCCCCC(=O)/C=C/CCCCCCC(=O)N[C@H](C)CO`: the Activity entry with HaCaT [1] was “Non-toxic”; in the data set with HaCaT [2], “Toxic”; in the data set on RAW264.7 [5], “Toxic”; in the data set on RAW264.7 [8], “Toxic”; in the data set on RAW264.7 [9] it was “Dose-dependent effect”.

On to `CCCCCCCC/C=C\CCCCCCCCCCCC(=O)NCCc1ccc(O)c(O)c1`, for which the Activity entry was “Non-toxic” in the data set with HaCaT [1]; “Toxic” in the data set with HaCaT [2]; “Dose-dependent effect” with RAW264.7 [3]; “Dose-dependent effect” in the data set with RAW264.7 [4]; “Toxic” in the data set on RAW264.7 [5]; “Dose-dependent effect” with RAW264.7 [7]. The Activity entry in the data set with RAW264.7 [8] is “Toxic”; with RAW264.7 [9] it was “Dose-dependent effect”; in the data set on RAW264.7 [9] (record 2), 2 µM. The CC50 at 24 h in data set [6] is 13 µM.

For the compound `CCCCCCCCC(=O)/C=C/CCCCCCC(=O)NC(C)C`, the Activity entry in the data set with HaCaT [1] was “Non-toxic”; with HaCaT [2], “Toxic”; in the data set with RAW264.7 [5] it was “Toxic”; in the data set on RAW264.7 [8], “Toxic”; in the data set with RAW264.7 [9], “Dose-dependent effect”.

Regarding `CC/C=C\C/C=C\C/C=C\CCCCCCCC(=O)NCCc1ccc(O)c(O)c1` [LINOLEOYL DOPAMINE], the Activity entry is “Non-toxic” in the data set with HaCaT [1]; “Dose-dependent effect” with RAW264.7 [3]; “Dose-dependent effect” with RAW264.7 [4]; “Dose-dependent effect” in the data set with RAW264.7 [7]; “Dose-dependent effect” in the data set with RAW264.7 [9].

By IC50 is commonly meant the concentration that inhibits the measured activity by half.

Source of the values: ChEMBL document CHEMBL1671795, “Evaluation of endogenous fatty acid amides and their synthetic analogues as potential anti-inflammatory leads” (Bioorg Med Chem, 2011).
